Assay results as given in publication PMC7811009, “Oxytocin modulates local topography of human functional connectome in healthy men at rest” (Communications Biology, 2021).

What was measured:
[1] = test system: amygdala/parahippocampal gyrus and anterior cingulate; conditions: same dose of intravenous oxytocin (10 IU), same cohort; cited from earlier work
Description: Our second key finding was the observation that the regional effects of exogenous oxytocin, compared to placebo, vary as a function of the route/method of administration. Particularly striking was the observation that the intravenous administration of oxytocin induced widespread changes in regional functional connectivity across many areas potentially relevant to explaining the effects of intranasal oxytocin on human behaviour and which have been classically ascribed to direct nose-to-brain transport. One of these areas is the amygdala, where we found decreased betweenness-centrality after int ...

[2] = test system: human functional connectome at rest; assay: Resting-state BOLD-fMRI, graph theory: nodal local efficiency (mesoscale); same doses, time and cohort; format: in vivo; conditions: post-hoc paired t-tests, FDR
Experimental: Each experimental session began with the treatment administration protocol that lasted about 22 min in total (Fig. 8, lower panel). After drug administration, participants were guided to the MRI scanner, where eight pulsed continuous arterial spin labelling scans (each lasting approx. eight minutes) were acquired, spanning 15–104 min post-dosing (data reported elsewhere[11]). The 8-min resting state BOLD-fMRI scan reported herein was obtained at about 57 ± 3.38 min post-dosing. Participants were instructed to lie still and maintain their gaze on a centrally placed fixation cross during scanning. We assessed participants’ levels of alertness (anchors: alert-drowsy) and excitement (anchors: excited-calm) using visual analogue scales (0–100) at three different time-points during the scanning session to evaluate subjective drug effects across time (data reported elsewhere[11]).
We used the CONN functional connectivity toolbox[97] to generate brain-wide functional connectivity matrices for each subject/session. […] The default atlas of the CONN toolbox includes 132 non-overlapping ROIs spanning cortical and subcortical areas and the cerebellum using a combination of the cortical and subcortical areas from the FSL Harvard-Oxford atlas and of the cerebellar areas of the Automatic Anatomical Labelling atlas (Supplementary data 1 for a detailed description). […] Finally, we normalized our correlation measures to z-scores using the Fisher’s r-z transform per subject/session.
We then used our z-transformed connectivity matrices to construct brain graphs representing a functional connectivity network for each subject/session. We used an undirected signed weighted approach in which we kept information about the sign and weight of each of the connections between the nodes (ROIs) of our network, without making assumptions about the direction of this relationship. […]
For each of the graph metrics analysed, we summarized the different values over the range of thresholds using the area under the curve (AUC), instead of applying multiple testing for each metric/threshold. […]

For `CC[C@H](C)[C@@H]1NC(=O)[C@H](Cc2ccc(O)cc2)NC(=O)[C@@H](N)CSSC[C@@H](C(=O)N2CCC[C@H]2C(=O)N[C@@H](CC(C)C)C(=O)NCC(N)=O)NC(=O)[C@H](CC(N)=O)NC(=O)[C@H](CCC(N)=O)NC1=O` [oxytocin], the “Effect on rCBF” value [1] is given as “decreases rCBF in the amygdala/parahippocampal gyrus and in the anterior cingulate”, the “Nodes with increased local efficiency compared to placebo” value (shortened to “Nodes with increased local efficiency”) ([2]; intravenous, 10 IU) is given as “increased the local efficiency of the right superior frontal gyrus, right frontal pole, anterior cingulate, left cuneal cortex, right posterior supramarginal gyrus and the brainstem” and the “Nodes with increased local efficiency” value ([2]; nebuliser, 40 IU intranasal) is given as “increased the local efficiency of the right cuneal cortex and the left posterior supramarginal gyrus”. For the same compound, the “Nodes with increased local efficiency” value ([2]; spray, 40 IU intranasal) was “increased the local efficiency of the right superior frontal gyrus, right anterior and posterior medial temporal gyri, right posterior superior temporal gyrus, right cuneal cortex and left cerebellum (area 1)”.
